Patent publication US5362630A, “Isolation of pseudomonas salicylate hydroxlase and its use for the identification and quantitation of salicylate in body fluids” (Duke University, priority 1992, dated 1994)

Columns and labels:
salicylate hydroxylase [1] = assay: Salicylate hydroxylase enzyme assay (NAD(P)H oxidation at 340 nm); format: biochemical, Pseudomonas
Method: Generally the reaction is carried out in a buffered solution (unless pH change or CO2 evolution is being measured). The buffer should offer near physiological conditions of pH and ionic strength for the enzyme. A potassium phosphate buffer, pH 7.6, at a concentration of 20 mM is preferred, although any pH from 6.5 to 8.9 and concentration from 5 to 100 mM is adequate. The sample may be added in any amount sufficient to trigger enzyme activity (if the salicylate is present in the sample) and the choice of sample size is discussed fully at a later time. From 1 to 40 μl per ml of total volume is convenient. Since the enzyme is generally available as a solution, it is conveniently added as such. About 10 μl of an enzyme solution containing 0.01 to 1 IU/ml is sufficient for most conditions, although the amount may be increased to speed up the reaction or decreased to slow the reaction down as needed. One IU (International Unit) is the amount of enzyme required to catalyze the disappearance of one μmole of NADH/min. NADH (or NADPH) may be present in a concentration of from about 10 to about 290 μM. Since the concentration of O2 in aqueous media is between 0.20 mM and 0.30 mM, it is not necessary to keep NAD(P)H concentration higher than […].
Enzyme Assay. The assay procedure for the enzyme and the definition of the enzyme were the same as that described in White-Stevens and Kamin (1970) except that EDTA and FAD were excluded in the assay mixture of the present work. The extinction coefficient of 6.22×10^3 M^-1 cm^-1 was used to convert the A340 change to micromoles of NADH oxidized.

salicylate hydroxylase [2] = settings: cited from earlier work; for product inhibition of the enzyme: found by White-Stevens and Kamin
[3] = cited from earlier work

| Compound | inhibition of / interference with the enzyme activity (salicylate hydroxylase [1]) | other results |
| --- | --- | --- |
| heparin | no effect |  |
| O=C(O)C(=O)O [oxalate] | do not inhibit |  |
| CC(=O)Nc1ccc(O)cc1 [acetaminophen] | do not interfere |  |
| Oc1ccccc1O [catechol] |  | product inhibition of the enzyme (salicylate hydroxylase [2]): no product inhibition |
| NAD(P)^+ |  | product inhibition of the enzyme (salicylate hydroxylase [2]): no product inhibition |
| O=C(O)c1ccccc1O [salicylate] |  | therapeutic range, serum or plasma level [3]: 5 to 40 mg/dL |
| O=C(O)CN(CCN(CC(=O)O)CC(=O)O)CC(=O)O [EDTA, ethylenediaminetetracetic acid] | do not inhibit |  |
| O=C(O)CC(O)(CC(=O)O)C(=O)O [citrate] | do not inhibit |  |
| CC(=O)Oc1ccccc1C(=O)O [aspirin, acetylsalicylic acid] |  | overdose serum/plasma level (serious poison, coma and death) [3]: over 45 mg/dl |
| O=C(O)c1ccccc1 [benzoate] |  | Km (salicylate hydroxylase [2]; substrate or pseudosubstrate of salicylate hydroxylase, read-out: Km of the enzyme): 2 mM |
